The text below walks through data of US6013660A (priority 1996, dated 2000).

Data set [1] relates to M. tuberculosis Erdman. In words: M. tuberculosis Erdman growth in broth, various concentrations of inhibitor (Examples 5, 12). The format is cell-based, Mycobacterium tuberculosis. To be noted: for inhibitory effect on M. tuberculosis growth (comparison of known GS inhibitors): relative to L-methionine-S-sulfoximine.
The next data set concerns THP-1 cells. The data set can be described thus: Growth/toxicity in human monocyte cell line THP-1, Examples 14 and 15. To be noted: for effect on growth rate of THP-1 cells: 200 μM MS, FIG. 19. The format is cell-based.
In data set [2] the test system is M. tuberculosis, Erdman strain. To be noted: 2000 μM MS added at 0, 1, 2, 3, 4 weeks; FIG. 3.
The next data set relates to M. tuberculosis H37Rv. To be noted: 0.2-200 μM MS; FIG. 5; similar to Erdman; listed as MS.
In another data set the test system is M. bovis BCG. To be noted: FIG. 7; listed as MS.
Data set [3] has as its target T1, extracellular glutamine synthetase (Mycobacterium tuberculosis, UniProt P9WN39).
For data set [4], the target named is cell-associated glutamine synthetase (Mycobacterium tuberculosis, UniProt P9WN39). To be noted: 20 μM MS; vs untreated; FIG. 22.
Data set [5] has as its target T2, extracellular glutamine synthetase (Mycobacterium avium, UniProt A0ACG7XF78). To be noted: M. avium vs highly pathogenic strains.
The next data set relates to M. phlei. To be noted: 0.2, 2, 20, 200 μM MS; FIG. 9.
For a further data set, the system named is M. smegmatis 1-2c. To be noted: 0.2, 2, 20, 200 μM MS; FIG. 10.
The subject of data set [6] is L. pneumophila Philadelphia 1. To be noted: 0.2, 2, 20, 200 μM MS; FIG. 11.
The next data set has as its system E. coli DH5α. To be noted: 0.2, 2, 20, 200 μM MS; FIG. 12.
Data set [7] deals with M. tuberculosis Erdman. To be noted: 200 μM MS.
The test system of a further data set is glutamine synthetase. To be noted: Manning et al., 1969; cited from earlier work.
Data set [8] deals with T1, extracellular glutamine synthetase. The data set can be described thus: biochemical. To be noted: read-out: extracellular GS activity relative to untreated cultures.
For data set [9], the target named is T2, extracellular glutamine synthetase. The data set can be described thus: biochemical. To be noted: read-out: concentration of MS required to completely inhibit glutamine synthetase activity.
Data set [10] concerns M. tuberculosis Erdman. The data set can be described thus: Control: effect of SDS on M. tuberculosis Erdman growth in broth culture (FIG. 24). The format is cell-based, Mycobacterium tuberculosis. To be noted: 0.1% SDS. How it is done: In the presence of 200 μM MS, M. tuberculosis growth was inhibited by almost 1 log by two days and by nearly 2 logs by five days.
Data set [11] has as its system M. tuberculosis Erdman. The data set can be described thus: Effect of L-glutamine on M. tuberculosis Erdman broth cultures with or without MS, Example 13. The format is cell-based, Mycobacterium tuberculosis. To be noted: for effect of L-glutamine on M. tuberculosis growth without MS: no MS, FIG. 14; for effect of L-glutamine on M. tuberculosis growth with subinhibitory MS: subinhibitory (minimally inhibitory, FIG. 15) MS. How it is done:
L-glutamine (L-GLN) was added to MS-treated cultures of M. tuberculosis Erdman.

Each structure is given as a SMILES string. “Also recorded” adds a separate entry of the source. Like-named read-outs stand apart in the source and are kept apart here.

In the case of `C[S@](=N)(=O)CC[C@H](N)C(=O)O` [L-methionine-S-sulfoximine], the “growth inhibition of M. tuberculosis Erdman in broth” value in the data set on M. tuberculosis Erdman [1] (2 μM MS) was “strongly inhibited”; in the data set with M. tuberculosis Erdman [1] (20 μM MS), “completely inhibited”; in the data set with M. tuberculosis Erdman [1] (200 μM MS) it was “completely inhibited”. Besides, in the data set on M. tuberculosis Erdman [1] (0.2, 2, 20, 200 μM, OD540 weekly, FIG. 4, listed as MS), the “growth inhibition of M. tuberculosis Erdman in broth, overall” value is reported as “strongly inhibits, in dose-dependent fashion; also recorded: inhibited the growth of M. tuberculosis Erdman in broth culture at all concentrations tested”. Moreover, the minimal effective concentration in the data set on M. tuberculosis Erdman [1] (Mycobacterium tuberculosis, broth culture, FIGS. 4 and 5 (Erdman and H37Rv), read-out: MS concentrations as low as ... inhibited M. tuberculosis growth) stood at 0.2 µM. Moreover, in the data set with THP-1 cells (0 or 200 μM MS), the “growth and viability of THP-1 cells” value was “grew at the same rate and maintained high viability”. Moreover, the figures for the “effect on growth rate of THP-1 cells” value with THP-1 cells and in the data set on THP-1 cells (listed as MS) were “lack of effect” and “no influence on the growth rate of these cells”, respectively. Moreover, in the data set on THP-1 cells (up to 200 μM MS, listed as MS), the “toxicity against THP-1 cells” value is “no toxicity toward a human monocyte cell line; also recorded: no evidence of toxicity against THP-1 cells; also recorded: no evident toxicity for THP-1 cells up to a concentration of 200 μM”. Besides, the “inhibition of M. tuberculosis growth in broth by time of addition” value in [2] was “inhibited the growth of M. tuberculosis in broth cultures when added up to 3 weeks following inoculation”. In addition, the “growth inhibition of M. tuberculosis H37Rv in broth” value in the data set with M. tuberculosis H37Rv is listed as “strongly inhibits, in dose-dependent fashion”. Besides, the “growth inhibition of M. bovis BCG in broth” value in the data set with M. bovis BCG was “strongly inhibits, in dose-dependent fashion”. In data set [3] (20 μM MS, extracellular vs cell-associated), the “preferential inhibition of extracellular over cell-associated GS activity” value was “preferentially inhibits extracellular GS activity”. For the same molecule, the “extracellular GS activity in M. tuberculosis cultures” value in [3] (0.2-200 μM MS from week 1, FIG. 20) is on record as “marked decrease in extracellular GS activity”. In addition, in [3] (2-200 μM MS), the “increase in extracellular GS activity over 3 weeks (week 1 to week 4)” value is given as “little or no increase in extracellular GS activity”. For the same molecule, the “cell-associated GS activity” value in data set [4] is recorded as “only slightly reduced”. The “concentration required to inhibit GS activity compared with M. tuberculosis and M. bovis” value in [5] is “higher than that required to inhibit the glutamine synthetase activity of the highly pathogenic strains of M. tuberculosis and M. bovis”. The “growth inhibition of M. phlei” value in the data set on M. phlei is recorded as “lack of effect”. In addition, the “growth inhibition of M. smegmatis” value with M. smegmatis 1-2c is listed as “lack of effect”. Besides, the “growth inhibition of L. pneumophila” value in [6] is reported as “lack of effect”. In addition, the “growth inhibition of E. coli” value in the data set on E. coli DH5α is “lack of effect”. Also, the “Colony forming units of M. tuberculosis Erdman from infected THP-1 human monocytes” value is recorded as 8.58 × 10^5 CFU in the data set with M. tuberculosis Erdman [7] (Day 0); 6.22 × 10^5 CFU with M. tuberculosis Erdman [7] (Day 2); 4.80 × 10^5 CFU in the data set with M. tuberculosis Erdman [7] (Day 5a, lysed with sodium dodecyl sulfate); 4.32 × 10^5 CFU in the data set with M. tuberculosis Erdman [7] (Day 5b, lysed by vortexing). In addition, the “inhibition of intracellular M. tuberculosis growth” value in the data set on M. tuberculosis Erdman [7] (by five days) is approximately 2 logs; in the data set with M. tuberculosis Erdman [7] (by two days), approximately 1 log. Also, the “inhibition of glutamine synthetase” value in the data set on glutamine synthetase is recorded as “inhibits glutamine synthetase”. The activity at 20 µM in data set [8] is less than 25%. Besides, the IC100 in data set [9] came to 200 µM.
Consider `CP(=O)(O)CC[C@H](N)C(=O)O` [phosphinothricin, reference compound], for which, in the data set on M. tuberculosis Erdman [1], the “inhibitory effect on M. tuberculosis growth (comparison of known GS inhibitors)” value is “only a very minor inhibitory effect on M. tuberculosis growth”.
Consider `CCCCCCCCCCCCOS(=O)(=O)[O-].[Na+]` [SDS, sodium dodecyl sulfate], for which the “influence of SDS on growth of M. tuberculosis in broth” value in the data set on M. tuberculosis Erdman [10] is “had no influence on growth of M. tuberculosis in broth culture”.
Consider `NC(=O)CC[C@H](N)C(=O)O` [L-glutamine], for which the “effect of L-glutamine on MS inhibition of M. tuberculosis” value in the data set with M. tuberculosis Erdman [11] (inhibitory MS (2, 20, 200 μM), FIGS. 16-18) is reported as “reverse the inhibitory effect of MS in a dose-dependent fashion; also recorded: reversed the inhibitory effect of MS”. Also, in the data set on M. tuberculosis Erdman [11], the “effect of L-glutamine on M. tuberculosis growth without MS” value is reported as “no or little influence on M. tuberculosis growth; also recorded: lack of effect” and the “effect of L-glutamine on M. tuberculosis growth with subinhibitory MS” value is on record as “no or little influence on M. tuberculosis growth; also recorded: lack of effect”. In addition, in the data set with M. tuberculosis Erdman [11] (listed as L-GLN), the “effect of L-glutamine on M. tuberculosis growth without MS” value is listed as “no effect on the growth” and the “effect of L-glutamine on M. tuberculosis growth with subinhibitory MS” value is “no effect on the growth”.
Consider `CS(=N)(=O)CCC(N)C(=O)O` (racemic) [DL-methionine-SR-sulfoximine, reference compound], for which the “potency in inhibiting growth of M. tuberculosis relative to L-methionine-S-sulfoximine” value in the data set with M. tuberculosis Erdman [1] (FIG. 13 vs FIG. 4) is on record as “about 1/4”. Moreover, the “inhibitory effect on M. tuberculosis growth (comparison of known GS inhibitors)” value in the data set with M. tuberculosis Erdman [1] is on record as “significantly weaker inhibitory effect on the growth of M. tuberculosis”.
